{"source": "paper PMC5438989", "about": "“Protein Biochemistry and Expression Regulation of Cadmium/Zinc Pumping ATPases in the Hyperaccumulator Plants Arabidopsis halleri and Noccaea caerulescens” (Frontiers in Plant Science, 2017)", "molecular_target": "T1, NcHMA4 (=TcHMA4) (Noccaea caerulescens, UniProt Q69AX6)", "T1 construct": "60-70 kD band on Western blot, so possibly processed; no added tag", "T1 sequence (Q69AX6 1-1186)": "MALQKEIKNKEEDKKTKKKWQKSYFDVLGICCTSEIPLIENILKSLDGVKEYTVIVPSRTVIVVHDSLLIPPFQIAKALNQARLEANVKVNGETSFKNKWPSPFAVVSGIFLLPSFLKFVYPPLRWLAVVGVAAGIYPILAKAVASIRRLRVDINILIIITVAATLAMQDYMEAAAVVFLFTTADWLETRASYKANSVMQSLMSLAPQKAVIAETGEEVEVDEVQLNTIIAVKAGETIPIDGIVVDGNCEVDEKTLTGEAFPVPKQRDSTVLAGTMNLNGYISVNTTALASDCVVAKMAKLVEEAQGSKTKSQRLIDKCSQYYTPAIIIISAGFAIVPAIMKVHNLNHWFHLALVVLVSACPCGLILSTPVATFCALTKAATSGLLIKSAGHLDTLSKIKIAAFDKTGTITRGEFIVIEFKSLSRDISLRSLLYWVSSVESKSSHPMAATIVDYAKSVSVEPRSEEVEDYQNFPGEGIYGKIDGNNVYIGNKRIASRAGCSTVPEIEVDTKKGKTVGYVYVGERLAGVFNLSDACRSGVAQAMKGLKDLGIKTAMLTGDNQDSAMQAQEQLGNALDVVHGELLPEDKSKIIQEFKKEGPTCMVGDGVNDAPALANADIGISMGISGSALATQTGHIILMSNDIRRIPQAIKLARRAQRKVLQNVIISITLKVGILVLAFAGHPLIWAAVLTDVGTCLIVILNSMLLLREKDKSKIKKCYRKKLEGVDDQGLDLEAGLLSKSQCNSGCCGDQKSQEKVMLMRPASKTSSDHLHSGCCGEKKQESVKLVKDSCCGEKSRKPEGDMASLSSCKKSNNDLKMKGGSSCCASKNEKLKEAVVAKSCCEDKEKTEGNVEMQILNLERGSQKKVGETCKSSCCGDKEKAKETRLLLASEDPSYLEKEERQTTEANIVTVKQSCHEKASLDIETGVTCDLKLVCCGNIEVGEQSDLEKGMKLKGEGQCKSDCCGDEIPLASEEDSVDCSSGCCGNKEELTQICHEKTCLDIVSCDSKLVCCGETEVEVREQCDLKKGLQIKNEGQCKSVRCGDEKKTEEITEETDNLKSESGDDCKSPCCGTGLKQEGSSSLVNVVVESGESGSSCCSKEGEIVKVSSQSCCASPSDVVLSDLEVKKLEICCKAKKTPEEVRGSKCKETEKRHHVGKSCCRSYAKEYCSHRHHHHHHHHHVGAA", "assay": "ATPase assay by phosphate release; F5 electrochromic dye fluorescence", "type": "biochemical", "details": "Cd2+ or Zn2+ activated; dye assay: 5 mM ATP, protein in phosphatidylcholine vesicles, 20 °C", "data": [{"compound": "Nc1ncnc2c1ncn2[C@@H]1O[C@H](COP(=O)(O)OP(=O)(O)OP(=O)(O)O)[C@@H](O)[C@H]1O", "note": "[ATP]", "values": [{"measurement": "ATPase assay by phosphate release; F5 electrochromic dye fluorescence", "value": "Addition of ATP caused dropping of fluorescence when added to an assay containing active enzyme"}]}]}
